Measurements published in patent US9529006B1, “Method for direct detection of lipid binding agents in membrane” (KING SAUD UNIVERSITY, priority 2015, dated 2016).
Where a SMILES comes first, the peptide text is derived from it. [ ]: non-standard residue; d: D form. Phe(ol) = N[C@H](CO)Cc1ccccc1; Aib = CC(C)(N)C(=O)O

Experiments:
[1] = Electrophysiology, gA and Alm channel currents in lipid bilayer; details: for conductance events in channels in lipid bilayer: gA V=200 mV, Alm V=150 mV
Method: (§1) As defined herein, a liposome is a spherical vesicle having at least one lipid bilayer. The liposome can be used as a vehicle for administration of nutrients and pharmaceutical drugs. Liposomes can be prepared routinely by disrupting biological membranes (such as by sonication). Two different kinds of processes to address membrane effects of all three different classes of MAAs were developed. First, the electrophysiology (EP) trials were performed to record membrane currents across lipid bilayer membranes doped with AMPs (antimicrobial peptides) or CDs (chemotherapy drugs). This technique helps to detect the presence of any stable, semi-stable or transient structures that might be induced into the lipid bilayer membrane as a result of MAA-lipid coexistence. To understand the membrane effect of aptamers, fluorescence (FL) measurements on liposome bound aptamers were performed. This method helps to understand the general lipid membrane binding of aptamers.
The membrane effects of AMPs were tested using established electrophysiology technique. Here, gA (gramicidin A) monomer with 15 amino acids was used for constructing gA channels and Alm (alamethicin) monomers were used for constructing Alm channels in a bilayer constructed using lipid 1,2-Dioleoyl-sn-Glycero-3-Phosphocholine. For the membrane effects of CDs, planar lipid bilayers were formed by applying a lipid cocktail of Phosphoethanolamine: phosphatydyleserine: phosphatidylcholine (5:3:2, v/v/v)/n-decane using the painting method over a 150 μm septum of a bilayer cuvette. The aptamer-lipid binding aspects were addressed by preparing liposomes using liposome technology. The liposomes were prepared with 1,2-dipalmitoyl-sn-glycero-3-phosphatidylcholine (DPPC) and 1,2-dipalmitoyl-sn-glycero-3-phospho-L-serine (sodium salt) (DPPS). Buffer with the liposome-bound and unbound aptamers containing 6-carboxyfluorescein (6-FAM) fluorescent tag attached at the 3′ end of the DNA sequence was separated using standard binding assay. The solution with bound aptamers was then investigated for fluorescence quantification. The following examples will further illustrate the direct detection method (DDM).
Membrane currents across lipid bilayer membranes doped with antimicrobial peptides (AMPs) or chemotherapy drugs (CDs) were investigated. The pattern of the general time dependent ion pore conducting current fluctuations is MAA specific. The amplitude and stability of the current events are found to vary due to the differences in the structures of MAAs. Some ion pores conduct currents with constant amplitudes over a period of time considered as pore lifetime. While a few other pores are found to conduct currents with fluctuating amplitudes over their lifetimes.
The gA channel activity was recorded at V=200 mV and Alm at V=150 mV. Here IgA=29±2, 113±5, 243±9 and 386±10 pA respectively are the discrete current levels 0, 1, 2, 3, . . . , etc. in Alm channel. Traces representing gA and Alm channel activities in phospholipid bilayers were recorded at filter frequencies 2 kHz and 20 kHz, respectively. A lower filter frequency for traces representing gA channel activity is alright because of the channel's relatively higher stability. In (B) the point count plots of the current traces through gA and Alm channels peak at discrete values of conductance.
AMP gA is reported to induce conductance events that conducts constant current IgA pA over its lifetime τgA. At the formation and breaking of a gA channel the current undergoes transitions between 0→IgA pA and IgA→0 pA respectively. The current transitions between 0 ? IgA pA happen instantaneously that means current transitions take almost no time. Here, IgA is constant (˜in low range pA) for any gA channel but TO appears with all possible values within a range 0 to a very high value in ms order]. With varied number of amino acids in gA monomer the value of both IgA and τgA vary. Detailed analysis can be found in ref. [2-6]. […]

[2] = Electrophysiology, membrane currents across planar lipid bilayers doped with chemotherapy drugs; details: 90 μM, pH=5.7, V=100 mV
Method: The gA channel activity was recorded at V=200 mV and Alm at V=150 mV. […] Traces representing gA and Alm channel activities in phospholipid bilayers were recorded at filter frequencies 2 kHz and 20 kHz, respectively.

[3] = Fluorescence measurements on liposome bound aptamers, liposome containing only PC; assay type: binding; details: liposomes containing no PS
Method: as §1, with “This technique helps to detect the presence of any stable, semi-stable or transient structures that might be induced into the lipid bilayer membrane as a result of MAA-lipid coexistence.” left out, “This method helps to understand the general lipid membrane binding of aptamers.” left out
(§2) The membrane effects of AMPs were tested using established electrophysiology technique. […] The solution with bound aptamers was then investigated for fluorescence quantification. […]
(§3) The aptamer-lipid binding aspects were addressed by preparing liposomes using known liposome technology. […] The solution with bound aptamers was then investigated for fluorescence quantification.
(§4) Binding affinity and selectivity of designed DNA aptamers were measured. […] The fluorescence (FL) measured in relative fluorescence units (RFU) is plotted against the [DNA] aptamer concentration. […]

[4] = Fluorescence measurements on liposome bound aptamers, liposomes containing PS; assay type: binding; details: liposomes containing 10% PS (DPPC and DPPS 9:1); 6-FAM tagged aptamer
Method: as §1, with “This technique helps to detect the presence of any stable, semi-stable or transient structures that might be induced into the lipid bilayer membrane as a result of MAA-lipid coexistence.” left out, “This method helps to understand the general lipid membrane binding of aptamers.” left out
as §2, §3, §4

gramicidin A [gA]
conductance events in channels in lipid bilayer [1]: rectangular-shape conductance events

COc1c(O[C@@H]2O[C@H](CO)[C@@H](O)[C@H](O)[C@H]2O)cc2c(c1OC)-c1ccc(SC)c(=O)cc1[C@@H](NC(C)=O)CC2 [TCC, thiocolchicoside]
conductance events induced in lipid bilayer [2]: triangular-shaped conductance events

SIIAp1: designed DNA aptamer, sequence (5′ → 3′) CAGAAAAAAAC (DNA, backbone and methylation of C not given here; further chemistry not fully specified)
binding of aptamer with liposome containing only PC (fluorescence) [3]: low non-specific binding | binding of aptamer with liposomes containing PS (fluorescence, RFU vs [DNA]) [4]: selective binding

CC(=O)NC(C)(C)C(=O)N1CCC[C@H]1C(=O)NC(C)(C)C(=O)N[C@@H](C)C(=O)NC(C)(C)C(=O)N[C@@H](C)C(=O)N[C@@H](CCC(N)=O)C(=O)NC(C)(C)C(=O)N[C@H](C(=O)NC(C)(C)C(=O)NCC(=O)N[C@@H](CC(C)C)C(=O)NC(C)(C)C(=O)N1CCC[C@H]1C(=O)N[C@H](C(=O)NC(C)(C)C(=O)NC(C)(C)C(=O)N[C@@H](CCC(=O)O)C(=O)N[C@@H](CCC(N)=O)C(=O)N[C@H](CO)Cc1ccccc1)C(C)C)C(C)C [Alm, alamethicin] (Ac-[Aib]P[Aib]A[Aib]AQ[Aib]V[Aib]GL[Aib]PV[Aib][Aib]EQ[Phe(ol)])
discrete current level 0 in Alm channel ([1]; V=150 mV, level 0): 29±2 pA | discrete current level 1 in Alm channel ([1]; V=150 mV, level 1): 113±5 pA | discrete current level 2 in Alm channel ([1]; V=150 mV, level 2): 243±9 pA | discrete current level 3 in Alm channel ([1]; V=150 mV, level 3): 386±10 pA | conductance events in channels in lipid bilayer [1]: rectangular-shape conductance events

SIIAp2: designed DNA aptamer, sequence (5′ → 3′) CAGAAAAAAAT (DNA, backbone and methylation of C not given here; further chemistry not fully specified)
binding of aptamer with liposomes containing PS (fluorescence, RFU vs [DNA]) [4]: selective binding
